# According to patent publication US20250195484A1, “CEREBLON LIGANDS AND USES THEREOF” (priority 2022, published 2025):
# Key:
# androgen receptor (AR) = biological target: T1, androgen receptor (AR) (Homo sapiens, UniProt P10275); experiment: Androgen receptor degradation, western blot; format: cell-based; conditions: AR degradation potency, cell line not stated
# T1 construct: endogenous in cells
# T1 sequence (P10275 1-920): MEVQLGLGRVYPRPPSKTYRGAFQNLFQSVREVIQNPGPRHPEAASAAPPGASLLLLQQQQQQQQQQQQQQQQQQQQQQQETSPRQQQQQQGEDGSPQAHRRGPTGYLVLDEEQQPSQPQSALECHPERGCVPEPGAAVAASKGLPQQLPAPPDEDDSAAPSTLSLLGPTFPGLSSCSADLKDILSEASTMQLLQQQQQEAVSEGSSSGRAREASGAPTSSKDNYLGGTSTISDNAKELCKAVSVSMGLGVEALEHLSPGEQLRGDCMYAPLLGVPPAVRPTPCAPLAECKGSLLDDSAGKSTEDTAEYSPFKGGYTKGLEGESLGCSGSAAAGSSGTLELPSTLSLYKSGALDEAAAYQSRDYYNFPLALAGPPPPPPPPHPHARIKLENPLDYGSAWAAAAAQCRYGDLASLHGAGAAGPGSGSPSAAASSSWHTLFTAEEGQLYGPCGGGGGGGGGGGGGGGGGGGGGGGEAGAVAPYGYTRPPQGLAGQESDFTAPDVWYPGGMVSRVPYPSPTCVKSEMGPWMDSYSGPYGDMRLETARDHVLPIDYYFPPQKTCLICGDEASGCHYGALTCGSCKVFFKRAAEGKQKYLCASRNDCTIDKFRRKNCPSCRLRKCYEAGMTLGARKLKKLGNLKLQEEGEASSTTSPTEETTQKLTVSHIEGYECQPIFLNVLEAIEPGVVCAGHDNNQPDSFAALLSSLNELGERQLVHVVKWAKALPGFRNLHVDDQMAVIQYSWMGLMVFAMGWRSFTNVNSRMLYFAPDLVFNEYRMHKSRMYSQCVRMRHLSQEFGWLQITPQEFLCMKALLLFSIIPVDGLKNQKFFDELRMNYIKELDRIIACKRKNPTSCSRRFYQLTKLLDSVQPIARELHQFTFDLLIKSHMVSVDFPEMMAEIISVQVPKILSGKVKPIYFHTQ
# Description: Western blot analysis was performed essentially as described previously. The cells treated with indicated compounds were lysed in Radioimmunoprecipitation Assay Protein Lysis and Extraction Buffer (25 mmol/L Tris.HCl, pH 7.6, 150 mmol/L NaCl, 1% Nonidet P-40, 1% sodium deoxycholate, and 0.1% sodium dodecyl sulfate) containing proteinase inhibitor cocktail (Roche Diagnostics, Mannheim, Germany). Equal amounts of total protein were electrophoresed through 10% SDS-polyacrylamide gels after determination of protein concentration by BCA assay (Fisher Scientific, Pittsburgh, PA). The separated protein bands were transferred onto PVDF membranes (GE Healthcare Life Sciences, Marlborough, MA) and blotted against different antibodies, as indicated. The blots were scanned, and the band intensities were quantified using GelQuant.NET software provided by biochemlabsolutions.com. The relative mean intensity of target proteins was expressed after normalization to the intensity of glyceraldehyde-3-phosphate dehydrogenase bands.
# BRD9 = biological target: T2, BRD9 (Homo sapiens, UniProt Q9H8M2); experiment: BRD9 HiBiT assay for protein degradation (HEK293 CRISPR knock-in); format: cell-based; conditions: for Dmax: HEK293, read-out: BRD9 HEK293 HiBit Dmax; for DC50: HEK293 CRISPR knock-in cells, 6 hrs
# T2 construct: endogenous in cells; host or cells: HEK293 (CRISPR HiBiT knock-in)
# Description: HiBiT Assay for protein degradation:
# The HiBit assay was performed using engineered HEK293 CRISPR knock-in cell utilizing the Nano-Glo HiBiT Lytic Detection System from Promega, Cat #N3040. Compounds were transferred, 25 nL DMSO or test compounds (final DMSO @ 0.1%) to intermediate plates (Corning3570) using ECHO550. Cells were seeded onto compounds at 2000 cells/25 μL/well and incubated for 6 hrs in tissue culture incubator at 37° C. and 5% CO2. The LgBiT Protein was diluted at 1:100 and the Nano-Glo® HiBiT Lytic Substrate 1:50 into an appropriate volume of room temperature using the Nano-Glo® HiBiT Lytic Buffer. At end of compound incubation time 15 ul of the detection reagent was added to each well (without LgBiT for negative control wells) using the Thermo Scientific multidrop combi. The plate was shaken for 10 mins at RT using Combi. After brief centrifugation (2000 rpm 1 mins), plate was read on Envision (Ultrasensitive luminescence model).
# [1] = biological target: GST-tagged wild-type human CRBN protein (Homo sapiens, UniProt Q96SW2); experiment: biochemical
# Chain of GST-tagged wild-type human CRBN protein (Q96SW2 whole entry): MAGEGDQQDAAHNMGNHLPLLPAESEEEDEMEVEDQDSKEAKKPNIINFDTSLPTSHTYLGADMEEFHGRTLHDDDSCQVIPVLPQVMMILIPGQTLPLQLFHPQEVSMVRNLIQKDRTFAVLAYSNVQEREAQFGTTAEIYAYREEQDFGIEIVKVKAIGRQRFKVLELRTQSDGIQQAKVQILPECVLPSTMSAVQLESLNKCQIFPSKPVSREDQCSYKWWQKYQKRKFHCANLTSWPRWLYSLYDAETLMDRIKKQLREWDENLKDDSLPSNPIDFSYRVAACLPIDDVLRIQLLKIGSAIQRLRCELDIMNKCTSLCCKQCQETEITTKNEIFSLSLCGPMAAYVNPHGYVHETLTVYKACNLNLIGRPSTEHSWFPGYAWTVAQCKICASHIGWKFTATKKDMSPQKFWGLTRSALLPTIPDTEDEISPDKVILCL
# Description: The binding to cereblon (CRBN) was determined using the Cereblon Binding Kit (Cisbio, #64BDCRBNPEG) following the manufacturer's instruction. Briefly, serially diluted compounds were incubated with GST-tagged wild-type human CRBN protein, XL665-labelled Thalidomide and Europium Cryptate labelled GST antibody at room temperature for about 3 hours.
# T2 sequence (Q9H8M2 whole entry): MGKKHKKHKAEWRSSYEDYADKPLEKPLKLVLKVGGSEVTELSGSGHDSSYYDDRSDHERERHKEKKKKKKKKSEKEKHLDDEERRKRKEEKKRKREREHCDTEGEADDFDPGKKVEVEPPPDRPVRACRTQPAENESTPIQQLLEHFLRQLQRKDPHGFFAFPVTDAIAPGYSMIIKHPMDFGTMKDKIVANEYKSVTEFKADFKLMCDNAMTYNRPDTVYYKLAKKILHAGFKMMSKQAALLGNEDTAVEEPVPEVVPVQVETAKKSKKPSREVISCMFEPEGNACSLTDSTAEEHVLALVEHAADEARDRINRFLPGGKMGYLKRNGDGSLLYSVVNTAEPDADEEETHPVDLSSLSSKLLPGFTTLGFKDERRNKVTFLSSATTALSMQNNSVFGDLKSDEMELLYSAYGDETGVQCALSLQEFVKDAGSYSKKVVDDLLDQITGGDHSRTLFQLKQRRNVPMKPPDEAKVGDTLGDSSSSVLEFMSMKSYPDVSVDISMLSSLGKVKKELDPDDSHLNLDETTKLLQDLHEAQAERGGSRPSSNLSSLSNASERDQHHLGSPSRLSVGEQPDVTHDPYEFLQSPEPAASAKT
smiles,measurement,setting,value
"C[C@H]1CC2(CCN(c3ccc(C(=O)N4CCC(CN5CCC6(CC5)COc5c6ccc6c5CN([C@H]5CCC(=O)NC5=O)C6=O)CC4)cc3)CC2)CN1c1ccc(C#N)c(Cl)c1 [ARD-1, 2-chloro-4-((S)-8-(4-(4-((7-((S)-2,6-dioxopiperidin-3-yl)-6-oxo-7,8-dihydro-2H,6H-spiro[furo[2,3-e]isoindole-3,4′-piperidin]-1′-yl)methyl)piperidine-1-carbonyl)phenyl)-3-methyl-2,8-diazaspiro[4.5]decan-2-yl)benzonitrile]",Dmax,androgen receptor (AR),> 75%
C[C@@H]1N(c2ccc(C#N)c(Cl)c2)CCC12CCN(c1ccc(C(=O)N3CCC(CN4CCC5(CC4)COc4c5ccc5c4CN([C@H]4CCC(=O)NC4=O)C5=O)CC3)cc1)CC2 [ARD-2],Dmax,androgen receptor (AR),> 75%
"N#Cc1ccc(O[C@H]2CC[C@H](NC(=O)c3ccc(N4CCC(CN5CCC6(CC5)COc5c6ccc6c5CN([C@H]5CCC(=O)NC5=O)C6=O)CC4)nn3)CC2)cc1Cl [ARD-3, N-((1r,4r)-4-(3-chloro-4-cyanophenoxy)cyclohexyl)-6-(4-((7-((S)-2,6-dioxopiperidin-3-yl)-6-oxo-7,8-dihydro-2H,6H-spiro[furo[2,3-e]isoindole-3,4′-piperidin]-1′-yl)methyl)piperidin-1-yl)pyridazine-3-carboxamide]",Dmax,androgen receptor (AR),> 75%
"CN(c1ccc(C#N)c(Cl)c1)[C@H]1CC[C@H](NC(=O)c2ccc(N3CCC(CN4CCC5(CC4)COc4c5ccc5c4CN([C@H]4CCC(=O)NC4=O)C5=O)CC3)nn2)CC1 [ARD-4, N-((1r,4r)-4-((3-chloro-4-cyanophenyl)(methyl)amino)cyclohexyl)-6-(4-((7-((S)-2,6-dioxopiperidin-3-yl)-6-oxo-7,8-dihydro-2H,6H-spiro[furo[2,3-e]isoindole-3,4′-piperidin]-1′-yl)methyl)piperidin-1-yl)pyridazine-3-carboxamide]",Dmax,androgen receptor (AR),> 75%
"COc1cc(-c2cn(C)c(=O)c3cnc(N4CCC4)cc23)cc(OC)c1C(=O)N1CCC2(CCC(CN3CCC4(CC3)COc3c4ccc4c3CN(C3CCC(=O)NC3=O)C4=O)CC2)CC1 (stereo not drawn) [BRD-1, 3-(1′-((3-(4-(6-(azetidin-1-yl)-2-methyl-1-oxo-1,2-dihydro-2,7-naphthyridin-4-yl)-2,6-dimethoxybenzoyl)-3-azaspiro[5.5]undecan-9-yl)methyl)-6-oxo-6,8-dihydro-2H,7H-spiro[furo[2,3-e]isoindole-3,4′-piperidin]-7-yl)piperidine-2,6-dione]",Dmax,BRD9,> 90%
same,DC50,BRD9,< 10 nM
"COc1cc(-c2cn(C)c(=O)c(C)c2C)cc(OC)c1C(=O)N1CCC2(CCC(CN3CCC4(CC3)COc3c4ccc4c3C(=O)N(C3CCC(=O)NC3=O)C4=O)CC2)CC1 (stereo not drawn) [BRD-2, 1′-((3-(2,6-dimethoxy-4-(1,4,5-trimethyl-6-oxo-1,6-dihydropyridin-3-yl)benzoyl)-3-azaspiro[5.5]undecan-9-yl)methyl)-7-(2,6-dioxopiperidin-3-yl)-7-hydro-2H,6H-spiro[furo[2,3-e]isoindole-3,4′-piperidine]-6,8-dione]",Dmax,BRD9,> 90%
same,DC50,BRD9,10 to 100 nM
"O=C1CCC(N2Cc3c(ccc4c3OCC43CCNCC3)C2=O)C(=O)N1 (stereo not drawn) [Compound B1, 3-(6-oxo-6,8-dihydro-2H,7H-spiro[furo[2,3-e]isoindole-3,4′-piperidin]-7-yl)piperidine-2,6-dione]",IC50,[1],1000 nM
